Consider 19 compounds from patent US12319676B2, “Substituted amide compounds useful as farnesoid X receptor modulators” (BRISTOL-MYERS SQUIBB COMPANY, priority 2019, dated 2025).

pEC50: −log10 of the molar value.

This assay deals with T1, human FXR (Homo sapiens, UniProt Q96RI1).
T1 construct: expressed in transfected cells; host or cells: HEK293 cells stably carrying a 5xGal4 response element-luciferase reporter, transiently transfected with pcDNA3.1-Gal4-FXR
T1 sequence (Q96RI1 262-486 limits assumed): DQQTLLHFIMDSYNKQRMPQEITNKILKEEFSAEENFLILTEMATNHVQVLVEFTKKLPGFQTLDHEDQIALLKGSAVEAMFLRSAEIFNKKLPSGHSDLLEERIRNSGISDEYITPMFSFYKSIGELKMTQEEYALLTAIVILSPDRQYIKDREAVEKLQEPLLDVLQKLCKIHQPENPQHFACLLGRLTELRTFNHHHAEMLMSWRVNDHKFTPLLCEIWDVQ
The assay is described as follows: transient human FXR/Gal4-luciferase reporter assay. It counts as cell-based. The conditions noted are these: Gal4-hFXR fusion construct, luciferase reporter in HEK293 cells; overnight incubation; response as percentage of 8 μM GW-4064 control. The protocol:
The exemplified compounds of the present invention were tested in the transient human FXR/Gal4-luciferase reporter assay, and assay results were reported in Table 1 and Examples 1 to 3 together with other analytical data. A Gal4-hFXR fusion construct reporter system was used as the primary assay to characterize compound activity. A construct including 5 copies of the Gal4 promoter response element upstream of a firefly luciferase reporter cDNA was stably expressed in HEK293 cells. This reporter cell line was maintained in Dulbecco's Modified Eagle's medium (DMEM; Gibco) supplemented with 1% penicillin-streptomycin (P/S) solution, 500 μg/mL Zeocin and 10% charcoal/dextran-treated fetal bovine serum (cs-FBS) at 37° C. in a humidified 5% CO2 atmosphere. Another plasmid was constructed in which the human cytomegalovirus promoter in the pcDNA3.1 vector directs the expression of the cDNA encoding a fusion protein comprised of the DNA binding domain from the Gal4 transcription factor fused to the ligand binding domain from human FXR. The day prior to transfection, the reporter cells in culture are detached from the plate with trypsin and plated into a T75 flask at a sufficient density to achieve approximately 90% confluence the next morning. The transfection reagents are prepared by separately diluting 25 μg of the pcDNA3.1-Gal4-FXR plasmid into 1.87 mL of Opti-MEM (Thermo-Fisher), and 40 μL of Lipofectamine 2000 (Thermo-Fisher) into 1.87 mL of Opti-MEM, and then adding the diluted DNA solution into the diluted Lipofectamine 2000 solution and incubating at room temperature for 15-20 minutes. The mixture is further diluted with 10 mL of a solution comprised of DMEM, 10% cs-FBS, and 1% P/S immediately prior to transferring to the cells. The maintenance culture media is aspirated from the cells and the final transfection mixture is added before the cells are incubated overnight at 37° C. in a humidified 5% CO2 atmosphere. This protocol can be scaled up, and the transiently transfected cells can be cryopreserved in an assay-ready format. For compound testing, 100 nL of the compounds (serial dilutions in DMSO) are dispensed with an Echo acoustic dispenser (Labcyte) into the wells of a Corning/Costar clear bottom 384-well white plate. The transfected cells are harvested, counted, and diluted such that 10-25,000 cells in 25 μL are plated into each well of the 384-well compound assay plate. The compound-treated cells are incubated overnight at 37° C. in a humidified 5% CO2 atmosphere. The next morning 25 μL of Steady-Glo (Promega) are added to each well of the plate, the mixture is incubated for 15 min. with shaking, and luminescence is measured on an Envision (Perkin Elmer) plate reader. Background counts from cells treated with DMSO alone are subtracted from all raw counts, and the corrected values are converted to a percentage of the control response attained with 8 μM GW-4064.
In general terms: In a reporter assay the amount or activity of a reporter protein is the signal.
As to `CC(C)Oc1cccc(N(CC23CCC(c4nc(C(C)(C)C)no4)(CC2)CC3)C(=O)[C@H]2C[C@](O)(C(F)(F)F)C2)c1` [Example 123, (1S,3S)—N-((4-(3-(tert-butyl)-1,2,4-oxadiazol-5-yl)bicyclo[2.2.2]octan-1-yl)methyl)-3-hydroxy-N-(3-isopropoxyphenyl)-3-(trifluoromethyl)cyclobutane-1-carboxamide], the negative-log EC50 (pEC50) was 5.70.

Take `C[C@]1(O)C[C@@H](C(=O)N(CC23CCC(c4noc(C(F)(F)F)n4)(CC2)CC3)c2cccc(C#N)c2)C1` [Example 117, (1S,3S)-N-(3-cyanophenyl)-3-hydroxy-3-methyl-N-((4-(5-(trifluoromethyl)-1,2,4-oxadiazol-3-yl)bicyclo[2.2.2]octan-1-yl)methyl)cyclobutane-1-carboxamide]: the pEC50 is 5.87. As for `CC(F)(F)c1nc(C23CCC(CN(C(=O)C45CC(F)(C4)C5)c4cccc(Br)c4)(CC2)CC3)no1` [Example 33, N-(3-bromophenyl)-N-((4-(5-(1,1-difluoroethyl)-1,2,4-oxadiazol-3-yl)bicyclo[2.2.2]octan-1-yl)methyl)-3-fluorobicyclo[1.1.1]pentane-1-carboxamide], the pEC50 is 7.89. The result for `CC(C)Oc1cccc(N(CC23CCC(c4noc(C(C)(F)F)n4)(CC2)CC3)C(=O)[C@H]2C[C@@](C)(O)C2)c1` [Example 125, (1S,3S)—N-((4-(5-(1,1-difluoroethyl)-1,2,4-oxadiazol-3-yl)bicyclo[2.2.2]octan-1-yl)methyl)-3-hydroxy-N-(3-isopropoxyphenyl)-3-methylcyclobutane-1-carboxamide] reads 5.82; that for `CC(F)(F)c1nc(C23CCC(CN(C(=O)C45CC(F)(C4)C5)c4cc(F)cc(C#N)c4)(CC2)CC3)no1` [Example 135, N-(3-cyano-5-fluorophenyl)-N-((4-(5-(1,1-difluoroethyl)-1,2,4-oxadiazol-3-yl)bicyclo[2.2.2]octan-1-yl)methyl)-3-fluorobicyclo[1.1.1]pentane-1-carboxamide], 7.74. Then `O=C(N(CC12CCC(c3ccc(C(F)(F)F)cn3)(CC1)CC2)c1cccc(Nc2ccc(OC(F)F)cc2)c1)C12CC(F)(C1)C2` [Example 107, N-(3-((4-(difluoromethoxy)phenyl)amino)phenyl)-3-fluoro-N-((4-(5-(trifluoromethyl)pyridin-2-yl)bicyclo[2.2.2]octan-1-yl)methyl)bicyclo[1.1.1]pentane-1-carboxamide], with 6.32. `O=C(N(CC12CCC(c3ccc(C(F)(F)F)cn3)(CC1)CC2)c1cccc(Nc2ncc(C3CC3)cn2)c1)C12CC(F)(C1)C2` [Example 105, N-(3-((5-cyclopropylpyrimidin-2-yl)amino)phenyl)-3-fluoro-N-((4-(5-(trifluoromethyl)pyridin-2-yl)bicyclo[2.2.2]octan-1-yl)methyl)bicyclo[1.1.1]pentane-1-carboxamide] showed a pEC50 of 6.53. The result for `CC(F)(F)c1ccc(C23CCC(CN(c4cccc(C#N)c4)C(=O)[C@H]4C[C@](O)(C(F)(F)F)C4)(CC2)CC3)nc1` [Example 51, (1S,3S)-N-(3-cyanophenyl)-N-((4-(5-(1,1-difluoroethyl)pyridin-2-yl)bicyclo[2.2.2]octan-1-yl)methyl)-3-hydroxy-3-(trifluoromethyl)cyclobutane-1-carboxamide] reads 5.88; that for `CCOc1cccc(N(CC23CCC(c4nc(C5CC5)no4)(CC2)CC3)C(=O)C23CC(F)(C2)C3)c1` [Example 52, N-((4-(3-cyclopropyl-1,2,4-oxadiazol-5-yl)bicyclo[2.2.2]octan-1-yl)methyl)-N-(3-ethoxyphenyl)-3-fluorobicyclo[1.1.1]pentane-1-carboxamide], 6.99; that for `CC(F)(F)c1nc(C23CCC(CN(C(=O)C4CCC(F)(F)CC4)c4cccc(C#N)c4)(CC2)CC3)no1` [Example 6, N-(3-cyanophenyl)-N-((4-(5-(1,1-difluoroethyl)-1,2,4-oxadiazol-3-yl)bicyclo[2.2.2]octan-1-yl)methyl)-4,4-difluorocyclohexane-1-carboxamide], 6.97. In turn, `O=C(N(CC12CCC(c3ccc(C(F)(F)F)cn3)(CC1)CC2)c1cccc(Nc2ccc(OC(F)F)cn2)c1)C12CC(F)(C1)C2` [Example 108, N-(3-((5-(difluoromethoxy)pyridin-2-yl)amino)phenyl)-3-fluoro-N-((4-(5-(trifluoromethyl)pyridin-2-yl)bicyclo[2.2.2]octan-1-yl)methyl)bicyclo[1.1.1]pentane-1-carboxamide] had a pEC50 of 6.20. The result for `COC(=O)COc1cccc(N(CC23CCC(c4ccc(N(C)C)c(Cl)c4)(CC2)CC3)C(=O)C2CCCCC2)c1` [Example 79, Methyl 2-(3-(N-((4-(3-chloro-4-(dimethylamino)phenyl)bicyclo[2.2.2]octan-1-yl)methyl)cyclohexanecarboxamido)phenoxy) acetate] reads 5.98; that for `CC(C)(C)c1nc(C23CCC(CN(C(=O)C45CC(F)(C4)C5)c4cccc(Nc5ccc(C(F)(F)F)cc5)c4)(CC2)CC3)no1` [Example 87, N-((4-(5-(tert-butyl)-1,2,4-oxadiazol-3-yl)bicyclo[2.2.2]octan-1-yl)methyl)-3-fluoro-N-(3-((4-(trifluoromethyl)phenyl)amino)phenyl)bicyclo[1.1.1]pentane-1-carboxamide], 5.70. The result for `COc1cccc(N(CC23CCC(c4nc(C5CC5)no4)(CC2)CC3)C(=O)C2CCOCC2)c1` [Example 60, N-((4-(3-cyclopropyl-1,2,4-oxadiazol-5-yl)bicyclo[2.2.2]octan-1-yl)methyl)-N-(3-methoxyphenyl)tetrahydro-2H-pyran-4-carboxamide] reads 6.04.

As for `CC(F)(F)c1nc(C23CCC(CN(C(=O)C45CC(F)(C4)C5)c4cccc(C(=O)O)c4)(CC2)CC3)no1` [Example 120, 3-(N-((4-(5-(1,1-difluoroethyl)-1,2,4-oxadiazol-3-yl)bicyclo[2.2.2]octan-1-yl)methyl)-3-fluorobicyclo[1.1.1]pentane-1-carboxamido)benzoic acid], the pEC50 is 5.40. Then `CS(=O)(=O)c1cccc(N(CC23CCC(c4nc(C5CC5)no4)(CC2)CC3)C(=O)C23CC(F)(C2)C3)c1` [Example 68, N-((4-(3-cyclopropyl-1,2,4-oxadiazol-5-yl)bicyclo[2.2.2]octan-1-yl)methyl)-3-fluoro-N-(3-(methylsulfonyl)phenyl)bicyclo[1.1.1]pentane-1-carboxamide], with 5.83; and `Cn1nc(C2CC2)cc1C12CCC(CN(c3cccc(C#N)c3)C(=O)[C@H]3C[C@](O)(C(F)(F)F)C3)(CC1)CC2` [Example 75, (1S,3S)-N-(3-cyanophenyl)-N-((4-(3-cyclopropyl-1-methyl-1H-pyrazol-5-yl)bicyclo[2.2.2]octan-1-yl)methyl)-3-hydroxy-3-(trifluoromethyl)cyclobutane-1-carboxamide], with 5.86; and `CC(F)(F)c1nc(C23CCC(CN(c4cccc(OC(F)F)c4)C(=O)[C@H]4C[C@](O)(C(F)(F)F)C4)(CC2)CC3)no1` [Example 13, N-((4-(5-(1,1-difluoroethyl)-1,2,4-oxadiazol-3-yl)bicyclo[2.2.2]octan-1-yl)methyl)-N-(3-(difluoromethoxy)phenyl)-3-hydroxy-3-(trifluoromethyl)cyclobutane-1-carboxamide], with 6.52. Regarding `N#Cc1cc(F)cc(N(CC23CCC(c4nc(C5CC5)no4)(CC2)CC3)C(=O)C23CC(F)(C2)C3)c1` [Example 62, N-(3-cyano-5-fluorophenyl)-N-((4-(3-cyclopropyl-1,2,4-oxadiazol-5-yl)bicyclo[2.2.2]octan-1-yl)methyl)-3-fluorobicyclo[1.1.1]pentane-1-carboxamide], the pEC50 was 6.73.

As a reminder, the pEC50 is the EC50 on a negative log10 scale, so that one unit is a factor of ten. A high value points to a small EC50.
